Experimental data as given in ChEMBL document CHEMBL1201862, “PubChem BioAssay data set” (2004).
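Five concentrations, 48 hours, 96-well plates. GI50: concentration for 50% inhibition of growth.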 Activity calls are given as the source filed them. No stated cut-off is given here; in the data, active = GI50 up to about 1.1 µM and inactive = higher.

Tests used:
Assay in all cases: inhibition of tumour cell growth, NCI panel, 48 h
[1] = test system: HOP-62
[2] = test system: SK-MEL-2
[3] = test system: SF-268
[4] = test system: K562
[5] = test system: Malme-3M
[6] = test system: UACC-257
[7] = test system: A549
[8] = test system: SF-295
[9] = test system: SK-MEL-28
[10] = test system: RPMI-8226
[11] = test system: UACC-62
[12] = test system: TK-10
[13] = test system: SK-MEL-5
[14] = test system: OVCAR-8
[15] = test system: ACHN
[16] = test system: OVCAR-3
[17] = test system: NCI-H460
[18] = test system: U-251

SMILES	GI50 [1]	GI50 [2]	GI50 [3]	GI50 [4]	GI50 [5]	GI50 [6]	GI50 [7]	GI50 [8]	GI50 [9]	GI50 [10]	GI50 [11]	GI50 [12]	GI50 [13]	GI50 [14]	GI50 [15]	GI50 [16]	GI50 [17]	GI50 [18]
CCOC(=O)Nc1ccc(S(=O)(=O)OC)cc1.CCOC(=O)Nc1ccc(S(=O)(=O)OC)cc1.Cc1cn(C2CC(O)C(CO)O2)c(=O)[nH]c1=O	> 100 µM (inactive)	> 100 µM (inactive)	> 100 µM (inactive)	34.2 µM (inactive)	> 100 µM (inactive)	> 100 µM (inactive)	> 100 µM (inactive)	> 100 µM (inactive)	> 100 µM (inactive)	36.5 µM (inactive)	> 100 µM (inactive)	> 100 µM (inactive)	> 100 µM (inactive)	> 100 µM (inactive)	> 100 µM (inactive)	> 100 µM (inactive)	> 100 µM (inactive)	
COc1ccc(C#CCC(OC2OC(CO)C(O)C(O)C2O)C(O)c2ccc(OC)c(OC)c2)cc1OC (centres undefined)	> 100 µM (inactive)	> 100 µM (inactive)	> 100 µM (inactive)	57.4 µM (inactive)	> 100 µM (inactive)	> 100 µM (inactive)	> 100 µM (inactive)	> 100 µM (inactive)	> 100 µM (inactive)	> 100 µM (inactive)	61.7 µM (inactive)		> 100 µM (inactive)	> 100 µM (inactive)	> 100 µM (inactive)	> 100 µM (inactive)	> 100 µM (inactive)	> 100 µM (inactive)
COC(=O)/C(=N\NC(=O)c1ccccc1O)C(C#N)c1ccccc1 (centres undefined)	20.7 µM (inactive)	> 50 µM (inactive)	23.5 µM (inactive)	16.4 µM (inactive)	21.4 µM (inactive)	25.9 µM (inactive)	16.6 µM (inactive)	22.1 µM (inactive)	> 50 µM (inactive)	20.2 µM (inactive)	12.1 µM (inactive)	> 46.7 µM (inactive)	22 µM (inactive)	23.7 µM (inactive)	19.7 µM (inactive)	16.6 µM (inactive)	18.9 µM (inactive)	32.1 µM (inactive)
COc1cc2c(c(OC)c1OC)-c1ccc(SC)c(=O)cc1C(CC(=O)Oc1cccc([N+](=O)[O-])c1)C2 (centres undefined)		0.713 µM (active)	1.02 µM (active)	0.344 µM (active)	0.36 µM (active)	2.89 µM (inactive)	1.16 µM (inactive)	0.342 µM (active)	0.546 µM (active)	0.647 µM (active)	0.356 µM (active)	> 90.8 µM (inactive)	0.592 µM (active)	0.767 µM (active)	0.891 µM (active)	0.276 µM (active)	0.45 µM (active)	0.794 µM (active)
Cc1cc(N(CCC#N)CCC#N)ccc1/C=C1N=C(/C=C\c2ccccc2)N(c2ccc(C(=O)O)cc2)C\1=O	> 100 µM (inactive)	> 100 µM (inactive)	> 100 µM (inactive)	> 100 µM (inactive)	> 100 µM (inactive)	> 100 µM (inactive)	> 100 µM (inactive)	> 100 µM (inactive)	> 100 µM (inactive)	> 100 µM (inactive)	> 100 µM (inactive)	> 100 µM (inactive)	> 100 µM (inactive)	> 100 µM (inactive)	> 100 µM (inactive)	> 100 µM (inactive)	> 100 µM (inactive)	> 100 µM (inactive)
COc1cc(OC)c(OC)cc1/C=N/NC(=O)N/N=C/c1cc(OC)c(OC)cc1OC		> 100 µM (inactive)	> 100 µM (inactive)	> 100 µM (inactive)	> 100 µM (inactive)	> 100 µM (inactive)	> 100 µM (inactive)	> 100 µM (inactive)	> 100 µM (inactive)	> 100 µM (inactive)	> 100 µM (inactive)	> 100 µM (inactive)	> 100 µM (inactive)	91 µM (inactive)	> 100 µM (inactive)	> 100 µM (inactive)	> 100 µM (inactive)	> 100 µM (inactive)
CN1C=C(C(N)=O)Cc2ccsc21	> 100 µM (inactive)	> 100 µM (inactive)	> 100 µM (inactive)	> 100 µM (inactive)	> 100 µM (inactive)	> 100 µM (inactive)	> 100 µM (inactive)	> 100 µM (inactive)	> 100 µM (inactive)	> 100 µM (inactive)	> 100 µM (inactive)		> 100 µM (inactive)	> 100 µM (inactive)	> 100 µM (inactive)	> 100 µM (inactive)	> 100 µM (inactive)	> 100 µM (inactive)
CC1CCC[P+](Cc2ccccc2)(c2ccccc2)CC1 (centres undefined)	> 100 µM (inactive)	21.6 µM (inactive)	89.1 µM (inactive)	31.3 µM (inactive)	4.99 µM (inactive)		> 100 µM (inactive)		41.2 µM (inactive)	7.23 µM (inactive)	25 µM (inactive)	> 100 µM (inactive)	14.5 µM (inactive)	59.8 µM (inactive)	> 100 µM (inactive)		79.6 µM (inactive)	77.4 µM (inactive)
Cc1ccc2c(CC(=O)O)cc(=O)oc2c1	> 100 µM (inactive)	> 100 µM (inactive)	> 100 µM (inactive)	> 100 µM (inactive)	> 100 µM (inactive)		> 100 µM (inactive)	> 100 µM (inactive)	> 100 µM (inactive)	> 100 µM (inactive)	> 100 µM (inactive)	> 100 µM (inactive)	> 100 µM (inactive)	> 100 µM (inactive)	> 100 µM (inactive)	> 100 µM (inactive)	> 100 µM (inactive)	> 100 µM (inactive)
NNC(=O)N/N=C1\C(=O)N(c2nccs2)C(=O)C(=O)C1c1nc2ccccc2s1 (centres undefined)	> 100 µM (inactive)	> 100 µM (inactive)	> 100 µM (inactive)		> 100 µM (inactive)	> 100 µM (inactive)	> 100 µM (inactive)	> 100 µM (inactive)	> 100 µM (inactive)	> 100 µM (inactive)	> 100 µM (inactive)	> 100 µM (inactive)		> 100 µM (inactive)	> 100 µM (inactive)	> 100 µM (inactive)	> 100 µM (inactive)	> 100 µM (inactive)
COC(=O)C1=CC2OC1(C)CCC2=O (centres undefined)	> 100 µM (inactive)	> 100 µM (inactive)	> 100 µM (inactive)	62.4 µM (inactive)	71.4 µM (inactive)	> 100 µM (inactive)	> 100 µM (inactive)	> 100 µM (inactive)	> 100 µM (inactive)	47.6 µM (inactive)	> 10 µM (inactive)	> 100 µM (inactive)		50.1 µM (inactive)	> 100 µM (inactive)	> 100 µM (inactive)	> 100 µM (inactive)	> 100 µM (inactive)
CC(=O)N(C)c1ccc2ncccc2c1[N+](=O)[O-]	> 100 µM (inactive)	> 100 µM (inactive)	> 100 µM (inactive)	> 100 µM (inactive)	> 100 µM (inactive)	> 100 µM (inactive)	> 100 µM (inactive)	> 100 µM (inactive)	> 100 µM (inactive)	> 100 µM (inactive)	> 100 µM (inactive)	> 100 µM (inactive)	> 100 µM (inactive)	> 100 µM (inactive)	> 100 µM (inactive)	> 100 µM (inactive)	> 100 µM (inactive)	
ClC[Si]12OCCN(CCO1)CCO2		> 100 µM (inactive)	> 100 µM (inactive)	> 100 µM (inactive)	> 100 µM (inactive)	> 100 µM (inactive)	> 100 µM (inactive)	> 100 µM (inactive)	> 100 µM (inactive)	> 100 µM (inactive)	> 100 µM (inactive)	> 100 µM (inactive)	> 100 µM (inactive)	> 100 µM (inactive)	> 100 µM (inactive)	> 100 µM (inactive)	> 100 µM (inactive)	> 100 µM (inactive)
Cn1c(=O)nc2n(-c3cc(Cl)ccc3Cl)c3ccccc3nc-2c1=O	12 µM (inactive)	5.62 µM (inactive)	11.9 µM (inactive)	6.4 µM (inactive)	3.78 µM (inactive)	2.18 µM (inactive)	4 µM (inactive)	7.62 µM (inactive)		4.71 µM (inactive)	1.61 µM (inactive)	12.3 µM (inactive)	1.95 µM (inactive)	3.34 µM (inactive)	0.906 µM (active)	2.95 µM (inactive)	2.53 µM (inactive)	6.4 µM (inactive)
C=CC/N=C1/N=C(CC(=O)OCC)CS1	> 100 µM (inactive)	> 100 µM (inactive)	> 100 µM (inactive)	> 100 µM (inactive)	> 100 µM (inactive)	> 100 µM (inactive)	> 100 µM (inactive)	> 100 µM (inactive)	> 100 µM (inactive)		> 100 µM (inactive)	> 100 µM (inactive)	> 100 µM (inactive)	> 100 µM (inactive)	> 100 µM (inactive)	> 100 µM (inactive)	> 100 µM (inactive)	> 100 µM (inactive)
CCC1C2C=CC(CC2)N1S(=O)(=O)c1ccc(C)cc1 (centres undefined)	27.6 µM (inactive)	14 µM (inactive)	20.8 µM (inactive)	18.1 µM (inactive)	21.4 µM (inactive)	20.9 µM (inactive)	28.2 µM (inactive)	29.2 µM (inactive)		12.9 µM (inactive)	11.2 µM (inactive)		18.4 µM (inactive)	> 10 µM (inactive)	35.9 µM (inactive)	33.7 µM (inactive)	23 µM (inactive)	
